Experimental data from patent US7253286B2, “Nitrogen-containing aromatic derivatives” (Eisai Co., Ltd, priority 2000, dated 2007).

Experiments:
[1] = tested on: Human Umbilical Vein Endothelial Cells (HUVECs); experiment: Inhibition against sandwich tube formation by vascular endothelial cells in response to stimulation by VEGF; type: cell-based; conditions: HUVEC in collagen gel sandwich, stimulation by VEGF (25 ng/ml VEGF and 10 ng/ml EGF), 4th day, total tube length, read-out: IC50 (concentration required for 50% inhibition of tube formation)
Procedure, shortened: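 HUVECs were sandwiched between collagen gel layers in serum-free medium with 25 ng/ml VEGF plus 10 ng/ml EGF, with test substance added above the gel at 37 °C. On day 4 tubes were MTT-stained and total tube length measured by image analysis. IC50 is the concentration halving tube length relative to no-compound wells.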

VEGFR2 = target: T1, VEGFR2 (Homo sapiens, UniProt P35968); experiment: Inhibition against VEGFR2 kinase (receptor tyrosine kinase activity, HTRF method); type: biochemical; conditions: His6-VEGFR2 cytoplasmic domain, biotin-poly(GT) substrate, ATP, 30° C. 10 minutes, read-out: IC50 (concentration required for 50% inhibition of VEGFR2 kinase activity)
T1 construct: coding for the cytoplasmic domain, beginning with lysine 791 and including the termination codon; made in house; host or cells: Sf9 insect cells (baculovirus, pFastBacHis)
T1 sequence (P35968 786-1356 limits assumed): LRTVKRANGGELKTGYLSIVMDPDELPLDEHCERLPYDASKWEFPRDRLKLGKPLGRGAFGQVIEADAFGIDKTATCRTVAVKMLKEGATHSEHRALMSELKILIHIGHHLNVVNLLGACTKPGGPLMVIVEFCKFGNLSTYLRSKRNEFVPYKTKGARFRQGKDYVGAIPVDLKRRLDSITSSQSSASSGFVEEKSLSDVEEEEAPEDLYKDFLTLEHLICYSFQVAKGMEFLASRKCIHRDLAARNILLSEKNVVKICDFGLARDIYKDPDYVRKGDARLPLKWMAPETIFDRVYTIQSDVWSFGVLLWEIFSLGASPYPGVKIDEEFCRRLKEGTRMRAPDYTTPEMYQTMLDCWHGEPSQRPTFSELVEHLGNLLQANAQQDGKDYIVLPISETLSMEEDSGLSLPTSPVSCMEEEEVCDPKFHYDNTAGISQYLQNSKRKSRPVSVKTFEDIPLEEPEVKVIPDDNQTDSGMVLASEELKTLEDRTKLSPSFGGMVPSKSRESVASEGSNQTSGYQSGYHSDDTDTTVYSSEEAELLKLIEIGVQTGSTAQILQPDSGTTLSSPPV
Procedure, shortened: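 Construct: His6-tagged VEGFR2 cytoplasmic domain (from Lys791), expressed in Sf9 cells. Kinase step: biotin-poly(Glu4:Tyr1) substrate, ATP added as 10 μl of 4 μM, Hepes pH 7.4 with Mg2+/Mn2+, 30 °C for 10 min, EDTA stop. Phosphotyrosine product measured by HTRF.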

Structure (SMILES) | IC50 (VEGFR2) [nM] | IC50 [1] [nM]
N#CCCCOc1cc2nccc(Oc3ccc(NC(=O)Nc4ccc(F)cc4F)c(F)c3)c2cc1C#N [Example 55, N-(4-(6-Cyano-7-(3-cyanopropoxy)-4-quinolyl)oxy-2-fluorophenyl)-N′-(2,4-difluorophenyl)urea] | 29 | 35
COCCOc1cc2nccc(Oc3ccc(NC(=O)Nc4ccc(F)cc4)c(F)c3)c2cc1C#N [Example 100, N-(4-(6-Cyano-7-(2-methoxyethoxy)-4-quinolyl)oxy-2-fluorophenyl)-N′-(4-fluorophenyl)urea] | 9.6 | 6.3
NC(=O)c1cc2c(Oc3ccc(NC(=O)NC4CC4)c(F)c3)ccnc2cc1OCCCN1CCOCC1 [Example 374, 4-(4-(Cyclopropylaminocarbonyl)amino-3-fluorophenoxy)-7-(3-(4-morpholino)propoxy)-6-quinolinecarboxamide] | 8.4 | 3

Compounds with a lower IC50 (VEGFR2), results first:

IC50 (VEGFR2) [nM] | Structure (SMILES) | IC50 [1] [nM]
6.5 | COc1cc2nccc(Oc3ccc(NC(=O)NC4CC4)c(Cl)c3)c2cc1C(=O)NCCS(C)(=O)=O [Example 404, N6-(2-(Methylsulfonyl)ethyl)-4-(3-chloro-4-(((cyclopropylamino)carbonyl)amino)phenoxy)-7-methoxy-6-quinolinecarboxamide] | 2.8
6.4 | CCNC(=O)n1ccc2cc(Oc3ccnc4cc(OC)c(C(N)=O)cc34)ccc21 [Example 316, 6-Carbamoyl-4-(1-ethylcarbamoyl-1H-indol-5-yloxy)-7-methoxyquinoline] | 1
